US20240148821A1, “PHARMACEUTICAL USE OF CYCLIC PEPTIDE COMPOUND” (CHUGAI SEIYAKU KABUSHIKI KAISHA, priority 2021, published 2024)
Numbered stars: 1 amine (or outer) side, 2 acyl side, 3 side chain; on linkers, the order of the positions; unused ones are H or OH. Bridge positions count the residues as written; N and C are the ends. Square brackets hold non-standard residues; d marks the D form. Peptide text beside a SMILES is read from it. * marks the point of attachment. hPhe(3-Cl-4-CF3) = N[C@@H](CCc1ccc(C(F)(F)F)c(Cl)c1)C(=O)O; hPhe(3-F,4-CF3) = N[C@@H](CCc1ccc(C(F)(F)F)c(F)c1)C(=O)O; NMePhe(4-Cl) = CN[C@@H](Cc1ccc(Cl)cc1)C(=O)O; NMePhe(4-Me) = CN[C@@H](Cc1ccc(C)cc1)C(=O)O; NMePhe(2-Cl) = CN[C@@H](Cc1ccccc1Cl)C(=O)O; NMedβ3hAla = C[C@H](CC(=O)[*:2])N(C)[*:1]; NMeAla(cPent) = CN[C@@H](CC1CCCC1)C(=O)O; NMeGly(cPent) = CN[C@H](C(=O)O)C1CCCC1; Phe(3-I) = N[C@@H](Cc1cccc(I)c1)C(=O)O; NMeCha = CN[C@@H](CC1CCCCC1)C(=O)O; NMeChg = CN[C@H](C(=O)O)C1CCCCC1; NMeF = CN[C@@H](Cc1ccccc1)C(=O)O; NMeD = CN[C@@H](CC(=O)O)C(=O)O; CH2CONHtBu = CC(C)(C)NC(=O)C*; NMeL = CN[C@@H](CC(C)C)C(=O)O; NMeV = CN[C@H](C(=O)O)C(C)C; d(β3hA) = C[C@@H](N)CC(=O)O; NMeS = CN[C@@H](CO)C(=O)O; NMeA = CN[C@@H](C)C(=O)O; NMeAib = CNC(C)(C)C(=O)O; Piperidide = C1CCN(*)CC1; Pyrrolidide = C1CCN(*)C1; Ac5c = NC1(C(=O)O)CCCC1; Aze = O=C(O)[C@@H]1CCN1; βAla = NCCC(=O)O; Sar = CNCC(=O)O; Propyl = CCC*

Tested on: Human pancreatic cancer cell line AsPC-1 (G12D mutation Kras)
Test: AsPC-1 cell growth inhibition (AsPC-1 CGI)
Format: cell-based
Conditions: read-out: AsPC-1 cell growth inhibition, 50% growth inhibitory concentration (IC50 value); 96 hours, CellTiter-Glo, values classified in ranges
Protocol: Test compounds were serially dilated with dimethyl sulfoxide, and 200 nL was then dispensed to a U-bottom 96-well plate using Labcyte Echo. […] The cell suspension was dispensed to a. plate containing a test compound at 100 μL per well and incubated at 37° C. in a 5% carbon dioxide gas incubator. 96 hours later, 80 μL of CellTiter-Glo (Promega) was added to each well and fluorescence was measured.

Going from CCCOC[C@H]1C(=O)N(C)CC(=O)N[C@@H](CCc2ccc(C(F)(F)F)c(F)c2)C(=O)N2CCC[C@H]2C(=O)NC2(CCCC2)C(=O)N(C)[C@@H](C2CCCC2)C(=O)N(C)[C@H](C(=O)N2CCCC2)CC(=O)N(C)[C@@H](CC(C)C)C(=O)N[C@@H]([C@@H](C)CC)C(=O)N(C)[C@@H](C)C(=O)N2CC[C@H]2C(=O)N1C [Compound 987] ([NMeL]I[NMeA][Aze][NMeS](Propyl)[Sar][hPhe(3-F,4-CF3)]P[Ac5c][NMeGly(cPent)][NMeD]-Pyrrolidide; lactam N-11) to CC[C@H](C)[C@@H]1NC(=O)[C@H](CC(C)C)N(C)C(=O)C[C@@H](C(=O)N2CCCCC2)N(C)C(=O)[C@H](C(C)C)N(C)C(=O)C2(CCCC2)NC(=O)[C@@H]2CCCN2C(=O)[C@H](CCc2ccc(C(F)(F)F)c(Cl)c2)NC(=O)CN(C)C(=O)[C@H](CC2CCCCC2)N(C)C(=O)[C@@H]2CCN2C(=O)[C@H](COCC(=O)NC(C)(C)C)N(C)C1=O [Compound 998] ([NMeL]I[NMeS](CH2CONHtBu)[Aze][NMeCha][Sar][hPhe(3-Cl-4-CF3)]P[Ac5c][NMeV][NMeD]-Piperidide; lactam N-11), the IC50 rises from at most 20 nM to over 500 nM.

CC[C@H](C)[C@@H]1NC(=O)[C@H](CC(C)C)N(C)C(=O)C[C@@H](C)N(C)C(=O)[C@H](CC2CCCC2)N(C)C(=O)C2(CCCC2)NC(=O)[C@@H]2CCCN2C(=O)[C@H](CCc2ccc(C(F)(F)F)c(Cl)c2)NC(=O)CN(C)C(=O)[C@H](CC2CCCCC2)N(C)C(=O)CN(C)C(=O)CN(C)C1=O [Compound 991] (cyclo([Ac5c][NMeAla(cPent)][NMedβ3hAla][NMeL]I[Sar][Sar][NMeCha][Sar][hPhe(3-Cl-4-CF3)]P)) and CC[C@H](C)[C@@H]1NC(=O)[C@H](CC(C)C)N(C)C(=O)C[C@@H](C)NC(=O)[C@H](C(C)C)N(C)C(=O)C2(CCCC2)NC(=O)[C@@H]2CCCN2C(=O)[C@H](CCc2ccc(C(F)(F)F)c(Cl)c2)NC(=O)CN(C)C(=O)[C@H](CC2CCCCC2)N(C)C(=O)CN(C)C(=O)[C@@H]2CCN2C1=O [Compound 1020] (cyclo([Ac5c][NMeV][d(β3hA)][NMeL]I[Aze][Sar][NMeCha][Sar][hPhe(3-Cl-4-CF3)]P)) cannot be ordered by IC50: over 500 nM for the first, over 500 nM for the second.

CC[C@H](C)[C@@H]1NC(=O)[C@H](CC(C)C)N(C)C(=O)C[C@@H](C(=O)N(C)C)N(C)C(=O)[C@H](C2CCCC2)N(C)C(=O)[C@H](C)NC(=O)[C@H](C)N(C)C(=O)[C@H](CCc2ccc(C(F)(F)F)c(Cl)c2)NC(=O)CN(C)C(=O)[C@H](CC2CCCCC2)N(C)C(=O)[C@@H]2CCN2C(=O)[C@H](C)N(C)C1=O [Compound 993] ([NMeL]I[NMeA][Aze][NMeCha][Sar][hPhe(3-Cl-4-CF3)][NMeA]A[NMeGly(cPent)][NMeD]-NMe2; lactam N-11) and CC[C@H](C)[C@@H]1NC(=O)[C@H](CC(C)C)N(C)C(=O)C[C@@H](C(=O)N(C)C)N(C)C(=O)[C@H](C2CCCC2)N(C)C(=O)C2(CCCC2)NC(=O)[C@H](Cc2ccccc2Cl)N(C)C(=O)[C@H](CCc2ccc(C(F)(F)F)c(Cl)c2)NC(=O)CN(C)C(=O)[C@H](CC2CCCCC2)N(C)C(=O)[C@@H]2CCN2C(=O)[C@H](C)N(C)C1=O [Compound 1009] ([NMeL]I[NMeA][Aze][NMeCha][Sar][hPhe(3-Cl-4-CF3)][NMePhe(2-Cl)][Ac5c][NMeGly(cPent)][NMeD]-NMe2; lactam N-11) cannot be ordered by IC50: over 500 nM for the first, over 500 nM for the second.

CC[C@H](C)[C@@H]1NC(=O)[C@H](C)N(C)C(=O)C[C@@H](C)NC(=O)[C@H](C(C)C)N(C)C(=O)[C@H](Cc2ccccc2)N(C)C(=O)[C@H](CC(C)C)N(C)C(=O)[C@H](CCc2ccc(C(F)(F)F)c(Cl)c2)NC(=O)CN(C)C(=O)[C@H](Cc2ccc(Cl)cc2)N(C)C(=O)[C@@H]2CCN2C(=O)CN(C)C1=O [Compound 994] (cyclo([Aze][NMePhe(4-Cl)][Sar][hPhe(3-Cl-4-CF3)][NMeL][NMeF][NMeV][d(β3hA)][NMeA]I[Sar])) and CC[C@H](C)[C@@H]1NC(=O)[C@H](CC(C)C)N(C)C(=O)C[C@@H](C(=O)N2CCCCC2)N(C)C(=O)[C@H](CC(C)C)NC(=O)C(C)(C)N(C)C(=O)[C@H](Cc2ccccc2)NC(=O)[C@H](Cc2cccc(I)c2)NC(=O)CN(C)C(=O)[C@H](Cc2ccc(C)cc2)N(C)C(=O)[C@@H]2CCN2C(=O)[C@H](C)N(C)C1=O [Compound 1015] ([NMeL]I[NMeA][Aze][NMePhe(4-Me)][Sar][Phe(3-I)]F[NMeAib]L[NMeD]-Piperidide; lactam N-11) cannot be ordered by IC50: over 500 nM for the first, over 500 nM for the second.

With CC[C@H](C)[C@@H]1NC(=O)CCNC(=O)[C@H](Cc2ccccc2)N(C)C(=O)[C@H](C2CCCCC2)N(C)C(=O)C2(CCCC2)NC(=O)[C@@H]2CCCN2C(=O)[C@H](CCc2ccc(C(F)(F)F)c(Cl)c2)NC(=O)CN(C)C(=O)[C@H](CC2CCCCC2)N(C)C(=O)CN(C)C(=O)CN(C)C1=O [Compound 1007] (cyclo([Ac5c][NMeChg][NMeF][βAla]I[Sar][Sar][NMeCha][Sar][hPhe(3-Cl-4-CF3)]P)) the IC50 was over 500 nM.
